Results published in patent US20250127906A1, “SMALL-MOLECULE DEGRADERS OF CDK8 AND CDK19” (University of South Carolina, priority 2021, published 2025).
Marks after values point to notes of the source that are not given here.

Assays:
[1] = target: CDK8 (Homo sapiens, UniProt P49336); test: CDK8 degradation in HEK-293 cells (Western blot, normalized by GAPDH); assay type: cell-based; design: endogenous in cells; host or cells: HEK-293; conditions: for % CDK8 remaining: 24 hours; for induction of CDK8 degradation by single agents: HEK-293, HP8580 200 nM and 1 μM, pomalidomide 5 μM, Senexin C 5 μM
Method: Table 1 presents the structures of 35 different chimeras that have been synthesized, together with their effects (at 1 μM or 0.3 μM concentrations) on CDK8 degradation in HEK-293 cells. The synthesis schemes of all the compounds are described below. CDK8 degradation was measured by Western blot analysis of RIPA lysates of HEK-293cells treated with or without the test compound for 24 hours, using antibodies against CDK8 (Santa Cruz sc-1521) and housekeeping protein GAPDH (Santa Cruz sc-32233) (loading control) Protein bands on immunoblotted PVDF membranes were visualized with Western Lighting Plus ECL detection reagent (Perkin Elmer, Waltham, MA, USA) using ChemiDoc Touch™ (Bio-Rad). Image processing and densitometry analysis were performed using ImageLab software (Bio-Rad) to quantify the CDK8 protein levels (normalized by GAPDH) and evaluate the effects of compound treatment.
FIGS. 2F and 2G show the effects of different concentrations of potent Senexin C- and BI-1347-based PROTACs on CDK8 and CDK19 degradation in HEK-293cells. Based on these assays, we calculated DC50 values that correspond to PROTAC concentrations inducing degradation of CDK8 and CDK19 to the half of protein level in untreated cells. The corresponding CDK8 DC50 values were 46 nM for IA7843, 6.6 nM for IA7882 and 2.8 nM for IA7886, and CDK19 DC50 values were 1 μM for IA7843, 25 nM for IA7882 and 10 nM for IA7886.

[2] = test system: SK-MM-2 cells; test: SK-MM-2 multiple myeloma cell growth over 20 days continuous treatment; assay type: cell-based; conditions: BI1347 200 nM, Senexin C 1 μM, IA7886 200 nM, IA7843 1 μM
Method: The following CDK8/19 kinase inhibitors were tested for their effects on MM cell lines over 20 days continuous treatment: CDK8/19 kinase inhibitors BI1347 (200 nM) and Senexin C (1 μM), BI1347-derived PROTAC IA7886 (200 nM) and Senexin C-derived PROTAC IA7843 (1 μM). 1-4 million cells were treated with vehicle control (0.1% DMSO), or CDK8/19 kinase inhibitors or PROTACs for 20 days. Every 4 days, cells were counted using BioRAD TC20 Automated Cell Counter with trypan blue staining, and the same number of cells were passaged to a new T25 flask to propagate under the same treatment conditions.

[3] = HEK-293 cells, tested at 0.3 μM (marked *)

Sequence of CDK8 (P49336 whole entry): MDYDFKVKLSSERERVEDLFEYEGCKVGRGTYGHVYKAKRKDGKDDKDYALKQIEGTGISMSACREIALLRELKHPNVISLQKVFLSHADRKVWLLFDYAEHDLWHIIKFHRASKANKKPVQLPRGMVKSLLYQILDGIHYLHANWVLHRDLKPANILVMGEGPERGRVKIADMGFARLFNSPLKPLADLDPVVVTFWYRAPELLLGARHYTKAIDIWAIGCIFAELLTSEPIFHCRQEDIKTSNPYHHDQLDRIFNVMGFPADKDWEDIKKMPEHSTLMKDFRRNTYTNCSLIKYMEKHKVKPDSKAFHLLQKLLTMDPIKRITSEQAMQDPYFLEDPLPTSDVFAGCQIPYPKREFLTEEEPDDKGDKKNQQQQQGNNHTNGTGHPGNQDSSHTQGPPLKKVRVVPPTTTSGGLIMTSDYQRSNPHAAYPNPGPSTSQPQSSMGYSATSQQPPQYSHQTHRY
Sequence of CDK8 (P24863 whole entry partner): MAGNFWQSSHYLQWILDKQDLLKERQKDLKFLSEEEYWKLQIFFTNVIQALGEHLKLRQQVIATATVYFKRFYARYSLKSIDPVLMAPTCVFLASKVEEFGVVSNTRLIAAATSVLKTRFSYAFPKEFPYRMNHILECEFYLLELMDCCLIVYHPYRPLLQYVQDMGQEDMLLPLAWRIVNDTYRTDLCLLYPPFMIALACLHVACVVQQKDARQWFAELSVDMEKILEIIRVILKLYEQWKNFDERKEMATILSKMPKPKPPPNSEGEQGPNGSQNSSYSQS

% CDK8 remaining ([1]; HEK-293 cells, tested at 1 μM) [%]	Compound	also measured
45	N#Cc1ccc2nccc(NCCc3ccc4cc(C(=O)N5CCN(C(=O)CCCCCCCCNC(=O)CCOCCNc6cccc7c6C(=O)N(C6CCC(=O)NC6=O)C7=O)CC5)ccc4c3)c2c1 (stereo not shown) [IA7835, N-[9-[4-[6-[2-[(6-cyano-4-quinolyl)amino]ethyl]naphthalene-2-carbonyl]piperazin-1-yl]-9-oxo-nonyl]-3-[2-[[2-(2,6-dioxo-3-piperidyl)-1,3-dioxo-isoindolin-4-yl]amino]ethoxy]propanamide]	
55	N#Cc1ccc2nccc(NCCc3ccc4cc(C(=O)N5CCN(C(=O)CCCCCCCCC(=O)NCCCCCNc6cccc7c6C(=O)N(C6CCC(=O)NC6=O)C7=O)CC5)ccc4c3)c2c1 (stereo not shown) [IA7840, 10-[4-[6-[2-[(6-cyano-4-quinolyl)amino]ethyl]naphthalene-2-carbonyl]piperazin-1-yl]-N-[5-[[2-(2,6-dioxo-3-piperidyl)-1,3-dioxo-isoindolin-4-yl]amino]pentyl]-10-oxo-decanamide]	
31	N#Cc1ccc2nccc(NCCc3ccc4cc(C(=O)N5CCN(C(=O)CCCCCCCCCCCNC(=O)CCNc6cccc7c6C(=O)N(C6CCC(=O)NC6=O)C7=O)CC5)ccc4c3)c2c1 (stereo not shown) [IA7848, N-[12-[4-[6-[2-[(6-cyano-4-quinolyl)amino]ethyl]naphthalene-2-carbonyl]piperazin-1-yl]-12-oxo-dodecyl]-3-[[2-(2,6-dioxo-3-piperidyl)-1,3-dioxo-isoindolin-4-yl]amino]propanamide]	
21	N#Cc1ccc2nccc(NCCc3ccc4cc(C(=O)N5CCN(C(=O)CCCCCCCCNC(=O)CCCCNc6cccc7c6C(=O)N(C6CCC(=O)NC6=O)C7=O)CC5)ccc4c3)c2c1 (stereo not shown) [IA7858, N-[9-[4-[6-[2-[(6-cyano-4-quinolyl)amino]ethyl]naphthalene-2-carbonyl]piperazin-1-yl]-9-oxo-nonyl]-5-[[2-(2,6-dioxo-3-piperidyl)-1,3-dioxo-isoindolin-4-yl]amino]pentanamide]	
81	N#Cc1ccc2nccc(NCCc3ccc4cc(C(=O)N5CCN(C(=O)CCCCCCCCCNC(=O)CCCCCNc6cccc7c6C(=O)N(C6CCC(=O)NC6=O)C7=O)CC5)ccc4c3)c2c1 (stereo not shown) [IA7859, N-[10-[4-[6-[2-[(6-cyano-4-quinolyl)amino]ethyl]naphthalene-2-carbonyl]piperazin-1-yl]-10-oxo-decyl]-6-[[2-(2,6-dioxo-3-piperidyl)-1,3-dioxo-isoindolin-4-yl]amino]hexanamide]	
95	N#Cc1ccc2nccc(NCCc3ccc4cc(C(=O)N5CCN(C(=O)CCCCCCCCNC(=O)CCCCCNc6cccc7c6C(=O)N(C6CCC(=O)NC6=O)C7=O)CC5)ccc4c3)c2c1 (stereo not shown) [IA7860, N-[9-[4-[6-[2-[(6-cyano-4-quinolyl)amino]ethyl]naphthalene-2-carbonyl]piperazin-1-yl]-9-oxo-nonyl]-6-[[2-(2,6-dioxo-3-piperidyl)-1,3-dioxo-isoindolin-4-yl]amino]hexanamide]	
19	N#Cc1ccc2nccc(NCCc3ccc4cc(C(=O)N5CCN(C(=O)CCCCCCCCCNC(=O)CCCCNc6cccc7c6C(=O)N(C6CCC(=O)NC6=O)C7=O)CC5)ccc4c3)c2c1 (stereo not shown) [IA7861, N-[10-[4-[6-[2-[(6-cyano-4-quinolyl)amino]ethyl]naphthalene-2-carbonyl]piperazin-1-yl]-10-oxo-decyl]-5-[[2-(2,6-dioxo-3-piperidyl)-1,3-dioxo-isoindolin-4-yl]amino]pentanamide]	
39	N#Cc1ccc2nccc(NCCc3ccc4cc(C(=O)N5CCN(C(=O)CCCCCCCCCCNC(=O)CCCNc6ccc7c(c6)C(=O)N(C6CCC(=O)NC6=O)C7=O)CC5)ccc4c3)c2c1 (stereo not shown) [IA7868, N-[11-[4-[6-[2-[(6-cyano-4-quinolyl)amino]ethyl]naphthalene-2-carbonyl]piperazin-1-yl]-11-oxo-undecyl]-4-[[2-(2,6-dioxo-3-piperidyl)-1,3-dioxo-isoindolin-5-yl]amino]butanamide]	
43	N#Cc1ccc2nccc(NCCc3ccc4cc(C(=O)N5CCN(C(=O)CCCCCCCCCCNC(=O)CCCNc6cccc7c6CN(C6CCC(=O)NC6=O)C7=O)CC5)ccc4c3)c2c1 (stereo not shown) [IA7869, N-[11-[4-[6-[2-[(6-cyano-4-quinolyl)amino]ethyl]naphthalene-2-carbonyl]piperazin-1-yl]-11-oxo-undecyl]-4-[[2-(2,6-dioxo-3-piperidyl)-1-oxo-isoindolin-4-yl]amino]butanamide]	
100	N#Cc1ccc2nccc(NCCc3ccc4cc(C(=O)N5CCN(C(=O)CCCCCCCCCNC(=O)COc6ccc7c(c6)CCCN7C(=O)CCl)CC5)ccc4c3)c2c1 [IA7875, 2-[[1-(2-chloroacetyl)-3,4-dihydro-2H-quinolin-6-yl]oxy]-N-[10-[4-[6-[2-[(6-cyano-4-quinolyl)amino]ethyl]naphthalene-2-carbonyl]piperazin-1-yl]-10-oxo-decyl]acetamide]	
100	O=C(Cn1cc(-c2ccc(-c3cncc4ccccc34)cc2)cn1)NCCOCCOCCOCCOCCNc1cccc2c1C(=O)N(C1CCC(=O)NC1=O)C2=O (stereo not shown) [IA7891, N-[2-[2-[2-[2-[2-[[2-(2,6-dioxo-3-piperidyl)-1,3-dioxo-isoindolin-4-yl]amino]ethoxy]ethoxy]ethoxy]ethoxy]ethyl]-2-[4-[4-(4-isoquinolyl)phenyl]pyrazol-1-yl]acetamide]	
41	NC(=O)c1sc2nccc(N3CCCN(c4ccc(C(=O)N5CCN(C(=O)CCOCCOCCOCCOCCNc6cccc7c6C(=O)N(C6CCC(=O)NC6=O)C7=O)CC5)cc4)CC3)c2c1N (stereo not shown) [IA7892, 3-amino-4-[4-[4-[4-[3-[2-[2-[2-[2-[[2-(2,6-dioxo-3-piperidyl)-1,3-dioxo-isoindolin-4-yl]amino]ethoxy]ethoxy]ethoxy]ethoxy]propanoyl]piperazine-1-carbonyl]phenyl]-1,4-diazepan-1-yl]thieno[2,3-b]pyridine-2-carboxamide]	
	CC(C)(C)C(=O)OCN1C(=O)CCC(N2C(=O)c3cccc(NCCCC(=O)NCCCCCCCCCCC(=O)N4CCN(C(=O)Cn5cc(-c6ccc(-c7cncc8ccccc78)cc6)cn5)CC4)c3C2=O)C1=O (stereo not shown) [IA7893, (3-(4-((4-((11-(4-(2-(4-(4-(isoquinolin-4-yl)phenyl)-1H-pyrazol-1-yl)acetyl)piperazin-1-yl)-11-oxoundecyl)amino)-4-oxobutyl)amino)-1,3-dioxoisoindolin-2-yl)-2,6-dioxopiperidin-1-yl)methyl pivalate]	% CDK8 remaining [1, 3]: 9%*; CDK8 degradation (in words) ([1]; HEK-293 cells, Western blot): highly potent degrader
	O=C1CCC(N2C(=O)c3cccc(NCCOCCOCCOCCC(=O)N4CCN(C(=O)Cn5cc(-c6ccc(-c7cncc8ccccc78)cc6)cn5)CC4)c3C2=O)C(=O)N1 (stereo not shown) [IA7894, 2-(2,6-dioxopiperidin-3-yl)-4-((2-(2-(2-(3-(4-(2-(4-(4-(isoquinolin-4-yl)phenyl)-1H-pyrazol-1-yl)acetyl)piperazin-1-yl)-3-oxopropoxy)ethoxy)ethoxy)ethyl)amino) isoindoline-1,3-dione]	% CDK8 remaining [1, 3]: 51%*
	O=C1CCC(N2C(=O)c3cccc(NCCCCC(=O)N4CCN(C(=O)Cn5cc(-c6ccc(-c7cncc8ccccc78)cc6)cn5)CC4)c3C2=O)C(=O)N1 (stereo not shown) [IA7895, 2-(2,6-dioxopiperidin-3-yl)-4-((5-(4-(2-(4-(4-(isoquinolin-4-yl)phenyl)-1H-pyrazol-1-yl)acetyl)piperazin-1-yl)-5-oxopentyl)amino) isoindoline-1,3-dione]	% CDK8 remaining [1, 3]: 70%*
	CN1CCN(C(=O)c2ccc3cc(CCNc4ccnc5ccc(C#N)cc45)ccc3c2)CC1 [Senexin C, reference compound]	induction of CDK8 degradation by single agents [1]: but not pomalidomide or Senexin C induced CDK8 degradation; growth inhibition over 20 days, order of efficacy [2]: BI1347<IA7886<Senexin C<IA7843
	Nc1cccc2c1C(=O)N(C1CCC(=O)NC1=O)C2=O (stereo not shown) [pomalidomide, reference compound]	induction of CDK8 degradation by single agents [1]: but not pomalidomide or Senexin C induced CDK8 degradation
